Laboratory results from ChEMBL document CHEMBL2073815, “Induction of hepatic phase II drug-metabolizing enzymes by 1,7-phenanthroline in rats is accompanied by induction of MRP3” (Drug Metab Dispos, 2003).

Legend:
Format in all cases: functional, organism-based
[1] = target: T1, Solute carrier organic anion transporter family member 1A4 (Rattus norvegicus, UniProt O35913); experiment: (§1) TP_TRANSPORTER: quantitative PCR in vivo, liver of male Sprague-Dawley rat
T1 sequence (O35913 whole entry): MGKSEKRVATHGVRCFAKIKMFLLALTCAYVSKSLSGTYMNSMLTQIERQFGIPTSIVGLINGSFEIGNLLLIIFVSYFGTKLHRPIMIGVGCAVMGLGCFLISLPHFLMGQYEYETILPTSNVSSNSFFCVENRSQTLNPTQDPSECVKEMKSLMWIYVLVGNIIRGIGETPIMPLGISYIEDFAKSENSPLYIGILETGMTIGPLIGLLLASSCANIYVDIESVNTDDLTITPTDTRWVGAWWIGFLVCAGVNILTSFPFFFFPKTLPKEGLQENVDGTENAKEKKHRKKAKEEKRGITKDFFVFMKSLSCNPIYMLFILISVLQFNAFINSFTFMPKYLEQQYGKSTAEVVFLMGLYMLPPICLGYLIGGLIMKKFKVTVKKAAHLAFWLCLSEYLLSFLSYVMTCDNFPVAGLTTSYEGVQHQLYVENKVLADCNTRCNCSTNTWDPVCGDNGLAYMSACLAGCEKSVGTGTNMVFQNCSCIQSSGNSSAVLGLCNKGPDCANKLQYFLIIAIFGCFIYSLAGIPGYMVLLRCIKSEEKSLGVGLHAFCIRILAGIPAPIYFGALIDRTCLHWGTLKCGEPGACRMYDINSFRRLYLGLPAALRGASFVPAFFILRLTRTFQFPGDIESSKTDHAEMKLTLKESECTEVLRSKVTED

[2] = target: T2, ATP-binding cassette sub-family C member 3 (Rattus norvegicus, UniProt O88563); experiment: as §1
[3] = target: T2, ATP-binding cassette sub-family C member 3; experiment: TP_TRANSPORTER: quantitative PCR in vivo, […] of male Sprague-Dawley rat

Measured: Activity

T2 sequence (O88563 whole entry): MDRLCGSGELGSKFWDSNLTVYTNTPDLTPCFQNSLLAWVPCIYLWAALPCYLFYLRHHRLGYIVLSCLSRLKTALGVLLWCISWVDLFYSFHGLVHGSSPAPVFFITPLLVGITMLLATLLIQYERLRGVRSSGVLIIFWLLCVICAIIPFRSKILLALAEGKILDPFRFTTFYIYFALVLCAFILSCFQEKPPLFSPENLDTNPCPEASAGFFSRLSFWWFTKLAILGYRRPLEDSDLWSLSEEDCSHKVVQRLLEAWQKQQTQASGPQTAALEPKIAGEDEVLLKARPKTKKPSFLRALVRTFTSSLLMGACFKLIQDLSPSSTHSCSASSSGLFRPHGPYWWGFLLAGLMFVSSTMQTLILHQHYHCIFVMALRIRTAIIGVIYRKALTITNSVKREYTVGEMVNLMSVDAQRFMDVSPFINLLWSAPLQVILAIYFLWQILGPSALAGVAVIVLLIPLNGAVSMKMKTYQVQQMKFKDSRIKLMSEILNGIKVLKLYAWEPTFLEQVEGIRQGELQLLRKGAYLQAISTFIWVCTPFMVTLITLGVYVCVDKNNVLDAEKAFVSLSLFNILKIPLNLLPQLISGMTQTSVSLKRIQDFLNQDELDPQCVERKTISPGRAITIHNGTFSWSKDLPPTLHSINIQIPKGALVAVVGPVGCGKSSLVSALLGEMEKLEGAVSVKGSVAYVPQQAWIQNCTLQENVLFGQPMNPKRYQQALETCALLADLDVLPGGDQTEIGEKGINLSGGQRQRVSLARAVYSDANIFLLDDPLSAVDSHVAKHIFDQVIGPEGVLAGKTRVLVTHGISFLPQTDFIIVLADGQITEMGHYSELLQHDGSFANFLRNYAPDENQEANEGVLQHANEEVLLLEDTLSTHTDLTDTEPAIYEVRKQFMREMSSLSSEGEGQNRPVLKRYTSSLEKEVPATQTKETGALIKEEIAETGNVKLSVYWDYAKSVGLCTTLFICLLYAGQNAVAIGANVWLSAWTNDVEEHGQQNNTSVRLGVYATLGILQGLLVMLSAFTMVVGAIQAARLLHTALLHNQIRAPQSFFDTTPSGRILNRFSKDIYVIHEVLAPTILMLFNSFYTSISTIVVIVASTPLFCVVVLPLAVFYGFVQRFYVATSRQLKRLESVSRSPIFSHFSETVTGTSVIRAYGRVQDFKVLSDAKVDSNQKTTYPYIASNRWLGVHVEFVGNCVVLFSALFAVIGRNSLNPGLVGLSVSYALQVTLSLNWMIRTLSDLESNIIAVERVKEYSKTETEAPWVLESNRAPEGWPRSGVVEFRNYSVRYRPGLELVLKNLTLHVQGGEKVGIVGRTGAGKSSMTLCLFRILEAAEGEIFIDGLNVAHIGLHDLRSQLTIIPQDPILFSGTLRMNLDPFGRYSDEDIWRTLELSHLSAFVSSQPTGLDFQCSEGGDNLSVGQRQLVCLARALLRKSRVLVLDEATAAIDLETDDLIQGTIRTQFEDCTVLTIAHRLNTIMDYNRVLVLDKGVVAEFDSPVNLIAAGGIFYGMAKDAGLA

c1cnc2c(c1)ccc1ncccc12
inducer []: all assays above
